Tests used:
HepG2 [1] = assay: Cytotoxicity against human HepG2 cells assessed as reduction in cell growth incubated for 48 hrs by MTT assay; assay type: functional, cell-based; conditions: HepG2, 48 h
HepG2 [2] = assay: Antiproliferative activity against human HepG2 cells assessed as reduction in cell viability incubated for 72 hrs by MTT assay; assay type: functional, cell-based; conditions: HepG2, 72 h
Leishmania infantum [3] = assay: Antileishmanial activity against Leishmania infantum MCAN/ES/89/IPZ229/1/89 promastigotes assessed as reduction in parasite growth measured for 48 hrs by resazurin dye based analysis; assay type: functional, organism-based; conditions: MCAN/ES/89/IPZ229/1/89, 48 h
Leishmania infantum [4] = assay: Antileishmanial activity against Leishmania infantum amastigotes infected in human THP-1 cells assessed as reduction in parasite growth incubated for 72 hrs by high content imaging analysis; assay type: functional, organism-based; conditions: THP-1, 72 h
Leishmania infantum [5] = assay: Antileishmanial activity against Leishmania infantum MCAN/ES/ 89/IPZ229/1/89 axenic amastigotes assessed as reduction in parasite viability treated for 48 hrs by PI staining based flow cytometry; assay type: functional, organism-based; conditions: MCAN/ES/89/IPZ229/1/89, 48 h
Leishmania infantum [6] = assay: Antiparasitic activity against Leishmania infantum amastigotes infected in human THP-1 cells assessed as reduction in parasitemia incubated for 72 hrs by high content imaging analysis; assay type: functional, organism-based; conditions: THP-1, 72 h
Leishmania infantum [7] = assay: Antileishmanial activity against Leishmania infantum MHOM/MA/67/ITMAP263 axenic amastigotes assessed as reduction in parasite viability treated for 24 hrs by PI staining based flow cytometry; assay type: functional, organism-based; conditions: MHOM/MA/67/ITMAP263, 24 h
Leishmania amazonensis [8] = assay: Antileishmanial activity against Leishmania amazonensis intracellular amastigotes assessed as parasite growth inhibition measured for 72 hrs by resazurin/alamar blue fluorometric assay; assay type: functional, organism-based
[9] = Selectivity index, ratio of CC50 for cytotoxicity against mouse BMDM cells to IC50 for antileishmanial activity against Leishmania amazonensis intracellular amastigotes; assay type: toxicity, cell-based; conditions: read-out: Ratio CC50/IC50
Leishmania amazonensis [10] = assay: Antileishmanial activity against Leishmania amazonensis WHOM/00LTB001 promastigotes assessed as reduction in parasite growth incubated for 72 hrs by resazurin staining based analysis; assay type: functional, organism-based; conditions: WHOM/00LTB001, 72 h
[11] = Cytotoxicity against mouse J774.A1 cells assessed as inhibition of cell growth measured for 72 hrs by MTT assay; assay type: toxicity, cell-based
Leishmania major [12] = assay: Antileishmanial activity against Leishmania major IR-173 promastigotes assessed as inhibition of parasite growth measured for 48 hrs by resazurin staining based analysis; assay type: functional, organism-based; conditions: IR-173, 48 h
[13] = Cytotoxicity against primary peritoneal mouse macrophages cells assessed as reduction in cell growth measured after 24 hrs by colorimetric assay; assay type: toxicity, cell-based, Macrophage
Leishmania major [14] = assay: Antileishmanial activity against Leishmania major MHOM/IR/-173 promastigotes assessed as inhibition of parasite growth measured for 24 hrs by resazurin dye-based analysis relative to control; assay type: functional; parameters: scale not given: the % may be the effect or the level left
Leishmania major [15] = assay: Antileishmanial activity against Leishmania major MHOM/IN/95/9515 amastigotes assessed as reduction in cell growth; assay type: functional, organism-based
Leishmania donovani [16] = assay: Antileishmanial activity against Leishmania donovani MHOM/SD/62/1S amastigotes assessed as reduction in cell growth; assay type: functional, organism-based
Leishmania amazonensis [17] = assay: Antileishmanial activity against Leishmania amazonensis promastigotes assessed as reduction in parasite viability incubated for 48 hrs by MTT assay; assay type: functional, organism-based
Leishmania donovani [18] = assay: Antileishmanial activity against Leishmania donovani 9515 amastigotes assessed as inhibition of parasite growth incubated for 48 hrs by resazurin dye based assay; assay type: functional, organism-based; conditions: Leishmania donovani, 9515, 48 h
[19] = Cytotoxicity against human THP-1 cells assessed as inhibition of cell growth measured after 72 hrs by MTT assay; assay type: toxicity, cell-based
Leishmania donovani [20] = assay: Antileishmanial activity against Leishmania donovani 9515 promastigotes assessed as inhibition of parasite growth incubated for 48 hrs by resazurin dye based assay; assay type: functional, organism-based; conditions: Leishmania donovani, 9515, 48 h
Leishmania donovani [21] = assay: Antileishmanial activity against Leishmania donovani promastigotes MHOM/SD/62/1S assessed as inhibition of cell growth measured after 48 hrs by resazurin dye based assay; assay type: functional, organism-based
Leishmania donovani [22] = assay: Antileishmanial activity against Leishmania donovani amastigotes MHOM/SD/62/1S assessed as inhibition of cell growth measured after 48 hrs by resazurin dye based assay; assay type: functional, organism-based
[23] = Cytotoxicity against African green monkey Vero cells assessed as reduction in cell viability incubated for 72 hrs by MTT assay; assay type: toxicity, cell-based, Chlorocebus sabaeus
Leishmania donovani [24] = assay: Antileishmanial activity against Leishmania donovani amastigotes assessed as inhibition of parasite growth; assay type: functional, organism-based
Leishmania donovani [25] = assay: Antileishmanial activity against Leishmania donovani promastigotes assessed as inhibition of parasite growth; assay type: functional, organism-based
Leishmania infantum [26] = assay: Antileishmanial activity against Leishmania infantum promastigote after 72 hrs by MTT assay; assay type: functional, organism-based
[27] = Cytotoxicity against mouse RAW264.7 cells assessed as reduction in cell viability measured after 48 hrs by MTT assay; assay type: toxicity, cell-based
Leishmania donovani [28] = assay: Antileishmanial activity against Leishmania donovani axenic amastigotes assessed as reduction in parasite growth measured after 24 hrs by PI staining based analysis; assay type: functional, organism-based
Leishmania donovani [29] = assay: Antileishmanial activity against Leishmania donovani MHOM/ET/67/HU3 promastigotes assessed as inhibition of parasite growth incubated for 72 hrs by MTT assay; assay type: functional, organism-based; conditions: MHOM/ET/67/HU3, 72 h
[30] = Selectivity index, ratio of CC50 for cytotoxicity against mouse J774.A1 cells to IC50 for antileishmanial activity against Leishmania amazonensis axenic amastigote assessed as inhibition of parasite growth; assay type: toxicity, cell-based; conditions: read-out: Ratio CC50/IC50
HepG2 [31] = assay: Cytotoxicity against human HepG2 cells assessed as reduction in cell growth measured for 48 hrs by MTT assay; assay type: functional
HepG2 [32] = assay: Antiproliferative activity against human HepG2 cells assessed as reduction in cell growth measured for 72 hrs by MTT assay; assay type: functional, cell-based; conditions: HepG2, 72 h
Leishmania infantum [33] = assay: Antileishmanial activity against Leishmania infantum MON-1 promastigotes assessed as reduction in parasite viability measured after 48 hrs by MTT assay; assay type: functional, organism-based; conditions: MON-1, 48 h
Leishmania donovani [34] = assay: Antileishmanial activity against Leishmania donovani S1 promastigotes assessed as parasite growth inhibition incubated for 72 hrs by Alamar blue assay; assay type: functional, organism-based; conditions: S1, 72 h

Nc1nc2ccccc2c2ccccc12
EC50 (HepG2 [1]): 3.07 µM
EC50 (HepG2 [2]): < 30 µM
EC50 (Leishmania infantum [3]): 12.6 µM

C/C(=N\Nc1nc(-c2ccc(Br)cc2)cs1)c1ccccn1
IC50 (Leishmania infantum [4]): 0.43 µM

CC1(C)Oc2c(c(=O)[nH]c3ccccc23)[C@H]2[C@@H](Cl)[C@](C)(O)CC[C@@H]21
IC50 (Leishmania infantum [5]): 8.1 µM

Cn1c(=O)c2c(c3ccccc31)OC(C)(C)[C@H]1CC[C@@](C)(O)[C@H](Cl)[C@H]21
IC50 (Leishmania infantum [6]): > 6.25 µM

CCCCCCCCNCc1ccc2c(c1)C(=O)CC(C)(C)O2
IC50 (Leishmania infantum [7]): 25.3 µM
IC50 (Leishmania amazonensis [8]): 24.6 µM
selectivity ratio [9]: 1.6

CCc1ccc(NC(=S)N/N=C/c2c[nH]c3c(C)cc(Br)cc23)cc1
IC50 (Leishmania amazonensis [10]): 12.3 µM
CC50 at 72 h [11]: 53.2 µM

CCCCCCCCCCn1cc(CNCCNc2ccnc3cc(Cl)ccc23)nn1
IC50 (Leishmania major [12]): 0.08 µM
CC50 at 24 h [13]: 18.2 µM

O=C(Cn1cnc2ccccc2c1=O)N1CCC2(CC1)OCCO2
Activity (Leishmania major [14]): 35%

Cc1ccc2c(NCCCN(C)C(=O)c3cccc(/C=C/C(=O)c4ccc(C)o4)c3)ccnc2c1
IC50 (Leishmania major [15]): 1.14 µM
IC50 (Leishmania donovani [16]): 1.08 µM

O=C(CCc1ccc(O)c(O)c1)O[C@H](Cc1ccc(O)cc1)C(=O)O
IC50 (Leishmania amazonensis [17]): 19 µM

O=[N+]([O-])c1ccc(/C=N\NS(=O)(=O)c2ccc(-c3ccccc3)cc2)o1
IC50 (Leishmania donovani [18]): 6.29 µM
IC50 at 72 h [19]: 50.4 µM
IC50 (Leishmania donovani [20]): 1.53 µM
IC50 (Leishmania donovani [21]): 1.45 µM
IC50 (Leishmania donovani [22]): 2.94 µM
IC50 at 72 h [23]: 16.4 µM

Cc1cc(O)c(C(=O)Nc2ccccc2)c(=O)n1Cc1ccc(F)cc1
IC50 (Leishmania donovani [24]): 55.8 µM
IC50 (Leishmania donovani [25]): 55 µM

O=C(/C=C/c1ccc(F)cc1)c1ccccc1Cl
IC50 (Leishmania infantum [26]): 74.1 µM
CC50 at 48 h [27]: 479 µM

CC(=O)Oc1ccc(CN2CNC(=O)C=N2)cc1C1OC(c2cccc(Cl)c2)=NN1C(C)=O (centres undefined)
IC50 (Leishmania donovani [28]): 6.05 µM
IC50 (Leishmania donovani [29]): 8.98 µM
selectivity ratio [30]: 2.4

CCOC(=O)c1cc2c([nH]c3ccccc32)c(-c2cn(-c3ccccc3)nn2)n1
CC50 (HepG2 [31]): > 200 µM
EC50 (HepG2 [32]): 13.6 µM
EC50 (Leishmania infantum [33]): 4.8 µM

COc1cccc2c1O/C(=C(/C)c1ncc([N+](=O)[O-])[nH]1)C2=O
IC50 (Leishmania donovani [34]): 0.016 µM
